Earlier results, collected in patent US20250288613A1, “COMPOSITIONS AND METHODS TARGETING SAT1 FOR ENHANCING ANTI-TUMOR IMMUNITY DURING TUMOR PROGRESSION” (THE BRIGHAM AND WOMEN’S HOSPITAL, INC., priority 2022, published 2025).

Biological target: human spermidine/spermine acetyltransferase (SSAT) (Homo sapiens, UniProt P21673)
Conditions: competitive inhibition; spermidine as substrate

human spermidine/spermine acetyltransferase (SSAT), sequence (P21673 whole entry): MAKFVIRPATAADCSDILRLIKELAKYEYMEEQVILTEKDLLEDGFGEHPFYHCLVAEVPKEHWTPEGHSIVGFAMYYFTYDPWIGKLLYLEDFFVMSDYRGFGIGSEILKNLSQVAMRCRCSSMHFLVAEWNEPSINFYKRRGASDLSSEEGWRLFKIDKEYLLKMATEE

Ki | Compound
2000 nM | N=C(N)c1ccc(/N=N/Nc2ccc(C(=N)N)cc2)cc1 [berenil, 4,4′-(1-Triazene-1,3-diyl)bis(benzenecarboximidamide)]
2400 nM | N=C(N)c1ccc(OCCCCCOc2ccc(C(=N)N)cc2)cc1 [Pentamidine]
